The source of these data is patent publication US11325938B2, “CD73 inhibitors” (ORIC Pharmaceuticals, Inc., priority 2018, dated 2022).

For this experiment, the target named is CD73 (Homo sapiens (Human), UniProt P21589). In words: Biochemical assay: inhibition of CD73 activity (AMP hydrolysis, Malachite Green readout). The following applies: CD73 0.3208 nM, AMP 15 μM, 25 mM Tris-HCl pH 7.4, RT, absorbance 620 nm. Put shortly:
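Phosphate from AMP hydrolysis (15 μM AMP, 10 min, RT) was detected by Malachite Green absorbance to give IC50s. Enzyme at 320 pM was first exposed 15 min to compounds, dosed from 100 μM in ½-log steps, in Tris pH 7.4 buffer with MgCl2, Brij-35 and BSA.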

Sequence of CD73 (P21589 27-574): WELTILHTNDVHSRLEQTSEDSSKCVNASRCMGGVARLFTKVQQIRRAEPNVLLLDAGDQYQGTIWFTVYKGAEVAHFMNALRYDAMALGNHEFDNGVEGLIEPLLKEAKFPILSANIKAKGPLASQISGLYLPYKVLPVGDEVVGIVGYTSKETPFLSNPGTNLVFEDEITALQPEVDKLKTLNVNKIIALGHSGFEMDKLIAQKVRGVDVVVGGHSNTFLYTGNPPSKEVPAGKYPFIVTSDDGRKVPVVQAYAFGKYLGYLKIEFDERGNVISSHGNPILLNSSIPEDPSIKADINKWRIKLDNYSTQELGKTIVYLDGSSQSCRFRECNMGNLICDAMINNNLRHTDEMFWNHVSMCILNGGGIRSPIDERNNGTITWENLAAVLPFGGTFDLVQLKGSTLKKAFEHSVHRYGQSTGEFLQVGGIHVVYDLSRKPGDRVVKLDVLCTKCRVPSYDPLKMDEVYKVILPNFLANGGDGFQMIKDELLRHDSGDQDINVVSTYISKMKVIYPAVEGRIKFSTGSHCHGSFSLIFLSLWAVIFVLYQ

In turn, `O=P(O)(O)C(CCO)S(=O)(=O)C[C@H]1O[C@@H](n2ncc3c(NC4CCCC4)nc(Cl)nc32)[C@H](O)[C@@H]1O` (stereo partly drawn) [Example 34, (1-((((2S,3S,4R,5R)-5-(6-chloro-4-(cyclopentylamino)-1H-pyrazolo[3,4-d]pyrimidin-1-yl)-3,4-dihydroxytetrahydrofuran-2-yl)methyl)sulfonyl)-3-hydroxypropyl)phosphonic acid] registered an IC50 of 100 to 1000 nM.

On to `C[C@](Cc1nn[nH]n1)(OC[C@H]1O[C@@H](n2ncc3c(NC4CCCC4)nc(Cl)nc32)[C@H](O)[C@@H]1O)P(=O)(O)O` [Example 120, ((S)-2-(((2R,3S,4R,5R)-5-(6-chloro-4-(cyclopentylamino)-1H-pyrazolo[3,4-d]pyrimidin-1-yl)-3,4-dihydroxytetrahydrofuran-2-yl)methoxy)-1-(2H-tetrazol-5-yl)propan-2-yl)phosphonic acid], for which the IC50 was not above 100 nM.

`CCOCC(CO)(OC[C@H]1O[C@@H](n2ncc3c(NC4CCCC4)nc(Cl)nc32)[C@H](O)[C@@H]1O)P(=O)(O)O` (mixture of isomers) [Example 169, rac-(2-(((2R,3S,4R,5R)-5-(6-chloro-4-(cyclopentylamino)-1H-pyrazolo[3,4-d]pyrimidin-1-yl)-3,4-dihydroxytetrahydrofuran-2-yl)methoxy)-1-ethoxy-3-hydroxypropan-2-yl)phosphonic acid] showed an IC50 not above 100 nM.

`CC(CO)(OC[C@H]1O[C@@H](n2nnc3c(N[C@@H]4CCc5ccccc54)nc(Cl)nc32)[C@H](O)[C@@H]1O)P(=O)(O)O` (stereo partly drawn) [Example 78, (2-(((2R,3S,4R,5R)-5-(5-chloro-7-(((R)-2,3-dihydro-1H-inden-1-yl)amino)-3H-[1,2,3]triazolo[4,5-d]pyrimidin-3-yl)-3,4-dihydroxytetrahydrofuran-2-yl)methoxy)-1-hydroxypropan-2-yl)phosphonic acid] gave an IC50 not above 100 nM.

`CC(CO)(OC[C@H]1O[C@@H](n2ncc3c(N[C@H]4CCC45CCC5)nc(Cl)nc32)[C@H](O)[C@@H]1O)P(=O)(O)O` (stereo partly drawn) [Example 136, (2-(((2R,3S,4R,5R)-5-(6-chloro-4-(((S)-spiro[3.3]heptan-1-yl)amino)-1H-pyrazolo[3,4-d]pyrimidin-1-yl)-3,4-dihydroxytetrahydrofuran-2-yl)methoxy)-1-hydroxypropan-2-yl)phosphonic acid] showed an IC50 not above 100 nM.

Regarding `O=P(O)(O)C(CO)OC[C@H]1O[C@@H](n2ncc3c(NCC4CC4)nc(Cl)nc32)[C@H](O)[C@@H]1O` (stereo partly drawn) [Example 30, (1-(((2R,3S,4R,5R)-5-(6-chloro-4-((cyclopropylmethyl)amino)-1H-pyrazolo[3,4-d]pyrimidin-1-yl)-3,4-dihydroxytetrahydrofuran-2-yl)methoxy)-2-hydroxyethyl)phosphonic acid], the IC50 is not above 100 nM.

The molecule `O=P(O)(O)C(CO)OC[C@H]1O[C@@H](n2ccc3c(NC4CCCC4)nc(Cl)nc32)[C@H](O)[C@@H]1O` (stereo partly drawn) [Example 117, (1-(((2R,3S,4R,5R)-5-(2-chloro-4-(cyclopentylamino)-7H-pyrrolo[2,3-d]pyrimidin-7-yl)-3,4-dihydroxytetrahydrofuran-2-yl)methoxy)-2-hydroxyethyl)phosphonic acid] showed an IC50 not above 100 nM.

As to `CC(CO)(OC[C@H]1O[C@@H](n2ncc3c(N[C@H]4CC[C@@H]5CCC[C@@H]54)nc(Cl)nc32)[C@H](O)[C@@H]1O)P(=O)(O)O` (stereo partly drawn) [Example 141, (2-(((2R,3S,4R,5R)-5-(6-chloro-4-(((1S,3aS,6aS)-octahydropentalen-1-yl)amino)-1H-pyrazolo[3,4-d]pyrimidin-1-yl)-3,4-dihydroxytetrahydrofuran-2-yl)methoxy)-1-hydroxypropan-2-yl)phosphonic acid], the IC50 is not above 100 nM.
